The results in this text go back to US4182889A, “Process for preparing 10-methyl-2,9-dioxatricyclo[4,3,1,0^3,7 ] decanes” (Kali-Chemie Pharma GmbH, priority 1977, dated 1980).

The nature of data set [1]: hexobarbital induced sleep prolongation in mice. Type of data set: in vivo. The settings on record: white mice; oral dosages starting at 10 mg/kg; dose dependent. The protocol: For example, they effect a significant increase of the duration of hexobarbital induced sleep in mice upon oral administration of from 1 to 100 mg/kg body weight. Electroencephalographical tests in rats show an increase of the classical and the paradoxical sleep phases upon oral administration of from 1 to 100 mg/kg body weight.
(§1) The hydrochloride of formula II, test substance number 1973, and the hydrogentartrate of formula II, test substance number 2961, have been used for pharmacological testing.

Data set [2] can be described thus: anticonvulsive activity in the screening in white mice. It counts as in vivo. Conditions: oral dosages starting at 10 mg/kg.
Text: as §1

A short description of data set [3]: toxicity in mice (LD50). Conditions: mouse, in vivo.

Where a name gives a salt, the structure may show the parent alone.

What is called LD50 is the dose expected to kill half of the subjects tested.

Consider `COC1OC2OC3(CN4CCCCC4)C(O)CC(C2C)C13` (stereo not drawn) [test substance number 1973, 3-piperidinomethyl-4β-hydroxy-8-methoxy-10β-methyl-2,9-dioxatricyclo[4,3,1,0^3,7] decane hydrochloride], for which the “increase of the duration of hexobarbital induced sleep” value in data set [1] is “remarkable increase”. In addition, in data set [2], the anticonvulsive activity result was “do not exhibit any anticonvulsive activity”. The LD50 in data set [3] (ip) came to 406 mg/kg; in data set [3] (po) it was 1140 mg/kg.
Take `COC1OC2OC3(CN4CCCCC4)C(O)CC(C2C)C13` (stereo not drawn) [test substance number 2961, 3-piperidinomethyl-4β-hydroxy-8-methoxy-10β-methyl-2,9-dioxatricyclo-[4,3,1,0^3,7] decane hydrogentartrate]: the “increase of the duration of hexobarbital induced sleep” value in data set [1] is listed as “remarkable increase”. For the same molecule, the anticonvulsive activity entry in data set [2] is reported as “do not exhibit any anticonvulsive activity”.
